Source: patent US9249114B2, “Thiazole derivatives” (Merck Patent GmbH, priority 2011, dated 2016)

Target: TANK binding kinase (TBK1) (Homo sapiens (Human), UniProt Q9UHD2)
Assay: TBK1 enzyme assay (384-well Flashplate kinase assay)
Format: biochemical
Details: 10 μM ATP, 120 Min at 30° C.
Protocol: Test for the Inhibition of TBK1
The kinase assay is performed as 384-well Flashplate assay (for e.g. Topcount measurement. 0.6 nM TANK binding kinase (TBK1), 800 nM biotinylated MELK-derived peptide (Biotin-Ah-Ah-[…]) SEQ ID NO: 2 and 10 μM ATP (spiked with 0.25 μCi ^33P-ATP/well) are incubated in a total volume of 50 μl (10 mM MOPS, 10 mM Mg-acetat, 0.1 mM EGTA, 1 mM DTT, 0.02% Brij35, 0.1% BSA, pH 7.5) with or without test compound for 120 Min at 30° C. The reaction is stopped with 25 μl 200 mM EDTA. After 30 Min at room temperature the liquid is removed and each well washed thrice with 100 μl 0.9% sodium chloride solution. Nonspecific reaction is determined in presence of 100 nM Staurosporine. Radioactivity is measured in a Topcount (PerkinElmer). Results (e.g. IC50-values) are calculated with program tools provided by the IT-department (e.g. AssayExplorer, Symyx).

Chain of TANK binding kinase (TBK1) (Q9UHD2 whole entry): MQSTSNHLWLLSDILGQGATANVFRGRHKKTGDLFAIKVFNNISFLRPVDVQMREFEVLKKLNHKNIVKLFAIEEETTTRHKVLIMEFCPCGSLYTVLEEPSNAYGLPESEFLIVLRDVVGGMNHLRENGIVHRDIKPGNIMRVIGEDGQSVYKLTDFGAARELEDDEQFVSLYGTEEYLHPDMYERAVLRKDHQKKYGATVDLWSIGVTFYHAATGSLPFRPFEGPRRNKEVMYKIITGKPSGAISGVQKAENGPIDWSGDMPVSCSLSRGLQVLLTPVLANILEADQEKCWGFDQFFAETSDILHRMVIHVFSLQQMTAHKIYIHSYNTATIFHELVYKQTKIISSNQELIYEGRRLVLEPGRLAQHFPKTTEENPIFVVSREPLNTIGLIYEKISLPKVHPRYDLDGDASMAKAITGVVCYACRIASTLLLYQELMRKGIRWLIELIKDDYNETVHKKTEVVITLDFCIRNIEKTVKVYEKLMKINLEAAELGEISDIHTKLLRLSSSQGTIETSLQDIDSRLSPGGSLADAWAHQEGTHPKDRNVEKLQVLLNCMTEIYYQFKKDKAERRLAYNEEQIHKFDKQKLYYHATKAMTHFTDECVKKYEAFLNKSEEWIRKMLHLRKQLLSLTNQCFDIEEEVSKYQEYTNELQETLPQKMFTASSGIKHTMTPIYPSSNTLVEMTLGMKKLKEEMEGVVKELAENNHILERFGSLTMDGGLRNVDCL

IC50 [nM]	Structure (SMILES)
300	CN1CCN(Cc2ccc(C(=O)Nc3sc(-c4ccncc4)nc3C(N)=O)cc2)CC1 [Compound A4, 5-[4-(4-methyl-piperazin-1-ylmethyl)-benzoylamino]-2-pyridin-4-yl-thiazole-4-carboxylic acid amide]
1400	CN1CCN(Cc2ccc(C(=O)Nc3sc(-c4ccnc(Cl)c4)nc3C(N)=O)cc2)CC1 [Compound A5, 2-(2-chloro-pyridin-4-yl)-5-[4-(4-methyl-piperazin-1-ylmethyl)-benzoylamino]-thiazole-4-carboxylic acid amide]
94	NC(=O)c1nc(-c2ccncc2)sc1NC(=O)c1ccc(CC2CCN(C(N)=O)CC2)cc1 [Compound A23, 4-[4-(4-carbamoyl-2-pyridin-4-yl-thiazol-5-ylcarbamoyl)-benzyl]-piperidine-1-carboxylic acid amide]
99	CN(C)C(=O)CCCCc1ccc(C(=O)Nc2sc(-c3ccncc3)nc2C(N)=O)cc1 [Compound A25, 5-[4-(4-dimethylcarbamoyl-butyl)-benzoylamino]-2-pyridin-4-yl-thiazole-4-carboxylic acid amide]
160	NC(=O)c1nc(-c2ccncc2)sc1NC(=O)c1ccc(CCCCCC(=O)O)cc1 [Compound A28, 6-[4-(4-carbamoyl-2-pyridin-4-yl-thiazol-5-ylcarbamoyl)-phenyl]-hexanoic acid]
190	NC(=O)c1nc(-c2ccncc2)sc1NC(=O)c1ccc(CC2CCNCC2)cc1 [Compound A29, 5-(4-piperidin-4-ylmethyl-benzoylamino)-2-pyridin-4-yl-thiazole-4-carboxylic acid amide]
200	CC(=O)N1CCC(Cc2ccc(C(=O)Nc3sc(-c4ccncc4)nc3C(N)=O)cc2)CC1 [Compound A30, 5-[4-(1-acetyl-piperidin-4-ylmethyl)-benzoylamino]-2-pyridin-4-yl-thiazole-4-carboxylic acid amide]
210	CN(C)CCNCc1ccc(C(=O)Nc2sc(-c3ccncc3)nc2C(N)=O)cc1 [Compound A31, 5-{4-[(2-dimethylamino-ethylamino)-methyl]-benzoylamino}-2-pyridin-4-yl-thiazole-4-carboxylic acid amide]
240	CNC(=O)CCCCc1ccc(C(=O)Nc2sc(-c3ccncc3)nc2C(N)=O)cc1 [Compound A32, 5-[4-(4-methylcarbamoyl-butyl)-benzoylamino]-2-pyridin-4-yl-thiazole-4-carboxylic acid amide]
260	COCCNCc1ccc(C(=O)Nc2sc(-c3ccncc3)nc2C(N)=O)cc1 [Compound A33, 5-{4-[(2-methoxy-ethylamino)-methyl]-benzoylamino}-2-pyridin-4-yl-thiazole-4-carboxylic acid amide]
310	CN1CCN(C(=O)c2ccc(C(=O)Nc3sc(-c4ccncc4)nc3C(N)=O)cc2)CC1 [Compound A34, 5-[4-(4-methyl-piperazine-1-carbonyl)-benzoylamino]-2-pyridin-4-yl-thiazole-4-carboxylic acid amide]
580	CN(C)C(=O)CCCCCc1ccc(C(=O)Nc2sc(-c3ccncc3)nc2C(N)=O)cc1 [Compound A35, 5-[4-(5-dimethylcarbamoyl-pentyl)-benzoylamino]-2-pyridin-4-yl-thiazole-4-carboxylic acid amide]
645	NC(=O)c1nc(-c2ccncc2)sc1NC(=O)c1ccc(CN2CCOCC2)cc1 [Compound A36, 5-(4-morpholin-4-ylmethyl-benzoylamino)-2-pyridin-4-yl-thiazole-4-carboxylic acid amide]
1160	NC(=O)c1nc(-c2ccncc2)sc1NC(=O)c1ccc(CN2CCCC2)cc1 [Compound A38, 2-pyridin-4-yl-5-(4-pyrrolidin-1-ylmethyl-benzoylamino)-thiazole-4-carboxylic acid amide]
1200	CC(C)(C)OC(=O)N1CCN(c2ccc(C(=O)Nc3sc(-c4ccncc4)nc3C(N)=O)cn2)CC1 [Compound A39, 4-[5-(4-Carbamoyl-2-pyridin-4-yl-thiazol-5-ylcarbamoyl)-pyridin-2-yl]-piperazine-1-carboxylic acid tert-butyl ester]
